Each structure is given as a SMILES string. Converted amounts (≈) assume the structure as drawn.

This test relates to Streptococcus pneumoniae. The test is described as follows: Antibacterial activity against tetracycline-susceptible Streptococcus pneumoniae GMRS06 harboring one-nucleotide insertion stop codon in […] gene. The format is functional.

`CN(C)[C@@H]1C(O)=C(C(N)=O)C(=O)[C@@]2(O)C(O)=C3C(=O)c4c(O)cccc4[C@@](C)(O)[C@H]3C[C@@H]12` [TETRACYCLINE]: 0.25 µg/mL (≈ 0.563 µM) was the least that counted as inhibitory (MIC).

Source of the values: ChEMBL document CHEMBL1152986, “The macrolide resistance genes erm(B) and mef(E) are carried by Tn2010 in dual-gene Streptococcus pneumoniae isolates belonging to clonal complex CC271” (2007).
